The target in one test is T1, HDAC8 (Homo sapiens, UniProt Q9BY41).
T1 sequence (Q9BY41 1-377): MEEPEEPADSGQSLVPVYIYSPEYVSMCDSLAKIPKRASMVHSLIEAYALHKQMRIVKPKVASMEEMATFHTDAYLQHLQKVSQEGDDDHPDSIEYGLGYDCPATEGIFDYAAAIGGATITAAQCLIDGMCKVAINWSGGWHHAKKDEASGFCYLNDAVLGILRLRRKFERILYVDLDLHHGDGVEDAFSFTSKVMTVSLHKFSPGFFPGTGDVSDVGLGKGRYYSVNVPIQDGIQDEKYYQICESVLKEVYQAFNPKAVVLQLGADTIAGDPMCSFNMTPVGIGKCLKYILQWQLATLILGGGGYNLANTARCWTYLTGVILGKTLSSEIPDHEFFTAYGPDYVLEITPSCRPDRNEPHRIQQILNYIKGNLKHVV
The test can be described thus: HDAC8 enzyme activity assay (Ac-H3K9, HPLC). To be noted: read-out: HDAC8, % inhibition.

A further test deals with T2, SIRT2 (Homo sapiens, UniProt Q8IXJ6).
T2 sequence (Q8IXJ6 1-389): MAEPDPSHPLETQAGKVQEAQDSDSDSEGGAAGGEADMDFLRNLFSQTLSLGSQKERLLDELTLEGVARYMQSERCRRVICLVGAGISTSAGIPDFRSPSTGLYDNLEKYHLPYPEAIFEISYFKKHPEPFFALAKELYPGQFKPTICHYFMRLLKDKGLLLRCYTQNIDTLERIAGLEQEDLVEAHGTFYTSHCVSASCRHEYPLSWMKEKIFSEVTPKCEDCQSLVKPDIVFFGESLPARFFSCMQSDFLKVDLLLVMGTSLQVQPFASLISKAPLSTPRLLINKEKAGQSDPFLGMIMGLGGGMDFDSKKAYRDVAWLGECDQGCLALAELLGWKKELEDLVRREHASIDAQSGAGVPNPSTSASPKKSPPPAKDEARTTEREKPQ
The test is described as follows: SIRT2 enzyme activity assay (Ac-H3K9, NAD+, HPLC).

Protocol for HDAC8: (§1) For HDAC1, 6, 8, and SIRT1-2, Ac-H3K9 was used as a substrate. […] The reaction was conducted for 15 min (HDAC11), 30 min (HDAC1, 4, 6, 8), and 5 min (SIRT1-2). Then, 20 μL of 0.2% TFA/acetonitrile was added to quench the reaction. The samples were analyzed by HPLC using a Chromolith HighResolution RP-18 end-capped 100 mm × 4.6 mm column (EMD Millipore). Mobile phase A was 0.1% TFA in water and mobile phase B was 0.1% TFA in acetonitrile. The total flow rate was 1 mL/min, and the gradient was 0% B (2 min), 0–60% B (7 min), 100% B (4 min), and 0% B (2 min). The relative ratio of product/substrate in each sample was compared to control sample (no inhibitor) to determine the inhibition level.
Protocol for SIRT2: as §1

As to `CCCCCCCCCCC[C@H]1O[C@@H]1C(=O)CCCCC[C@@H]1NC(=O)[C@H]2CCCCN2C(=O)[C@H](Cc2ccccc2)NC(=O)[C@H](Cc2ccccc2)NC1=O` [TD034], on HDAC8, the inhibition (commonly the drop in the measured response relative to a control, in per cent) at 1 µM is 0%; the inhibition at 10 µM is 0%; the inhibition at 25 µM is 0%. Further, the IC50 (commonly the midpoint of a concentration-inhibition curve) on SIRT2 is around 25 µM. In addition, on SIRT2 (read-out: SIRT2, % inhibition), the inhibition at 1 µM was determined as 9%, the inhibition at 10 µM turned out to be 29% and the inhibition at 25 µM turned out to be 54%.

These data come from article PMC10127203, “Trapoxin A Analogue as a Selective Nanomolar Inhibitor of HDAC11” (ACS Chemical Biology, 2023).
